Laboratory results reported in US5298494A, “Monosaccharides having anti-proliferation and anti-inflammatory activity, compositions and uses thereof” (Greenwich Pharmaceuticals Incorporated, priority 1993, dated 1994).

Legend:
[1] = system: T lymphocytes (normal mouse spleen cells) stimulated with ConA; experiment: Mouse Spleen Cell ConA Blastogenesis Assay; assay type: cell-based, mouse (C57Bl/6); conditions: control compound, concentration not given
[2] = system: BUD-8 human skin fibroblasts; experiment: Fibroblast assay: proliferation of BUD-8 skin cell fibroblasts; assay type: cell-based; conditions: concentration not given
Experimental: The human skin cell fibroblast line, BUD-8 was obtained prior to each assay from the American Type Culture Collection. This is a fibroblast-like cell line which was originally derived from the normal skin of a person.
(§1) BUD-8 cell cultures were expanded for use in 25 cm^2 flasks at 37° C. in an atmosphere of 5% CO2 in air. At approximately 4-5 five day intervals, or when confluence was reached, the cells were passaged. This was accomplished by detaching the cells with a Teflon scraper, washing and reseeding the cells at a lower density into fresh tissue culture flasks.
(§2) The effect of the compound of the present invention on the proliferative capacity of human BUD-8 skin fibroblasts was measured with the use of a ^3 H-thymidine incorporation assay using culture conditions which were similar to those used for a Con-A blastogenesis assay, described previously. Cultured skin cells were detached from the surface of tissue culture flasks mechanically with a Teflon scraper. The cells were washed, resuspended in incubation medium and the viabilities were determined. These cells were then plated in triplicate at a density of 2×10^3 cells/0.1 ml/microtiter well for the proliferation assay and a density of 1×10^4 cells/0.1 ml/microtiter well for the assays to quantitate PGE2 and LTB4. To these cells was added incubation medium containing indomethacin to inhibit prostaglandin production, or nordihydroguaiaretic acid (NDGA) to inhibit leukotriene production (positive controls).
After 3 days of culture, 1 uCi ^3 H-thymidine was added in a 50 ul volume to each culture well of the microtiter plates. Eighteen hours later, each of the BUD-8 cultures was examined morphologically for evidence of compound-induced toxicity such as cell rounding or granularity. The thymidine-pulsed cells were then precipitated and the amount of ^3 H-thymidine incorporated was counted in a liquid scintillation counter.
The concentrations of the compounds of the invention which were used in these assays were:
The incubation medium used for culturing the BUD-8 cells was RPMI-1640 medium containing 10% fetal bovine serum, 100 ug/ml streptomycin, 100 U/ml penicillin, 0.2M Hepes buffer solution, 5×10^-5 M 2-mercaptoethanol and 2 mM glutamine.

[3] = system: LTB4 production by BUD-8 skin cell fibroblasts; experiment: LTB4 production by BUD-8 skin cell fibroblasts (radioimmunoassay); assay type: cell-based, human; conditions: concentration not given; for % effect on LTB4 production (positive control): 1080 min
Experimental: as §2
(§3) After 18 hours of culture, samples of the BUD-8 skin cell supernatants were collected from one set of microtiter plates and frozen until assayed for PGE2 or for LTB4 content using the radioimmunoassays described below.
Levels of LTB4 in aliquots of BUD-8 skin cell cultures supernatants were quantitated by radioimmunoassay (New England Nuclear). Briefly, into each polyproplyene tube were mixed 0.1 ml anti-LTB4, 0.1. ml ^3 H-LTB4 and 0.1 ml LTB4 standard or LTB4 containing sample. The BUD-8 skin cell culture supernatants were used directly in the radioimmunoassay. Tubes were refrigerated overnight. A charcoal solution (0.5 ml of 0.5% charcoal Norit A) was added and each tube was centrifuged. The radioactivity in the supernatant was then counted in a liquid scintillation counter.

[4] = system: PGE2 production by BUD-8 skin cell fibroblasts; experiment: PGE2 production by BUD-8 skin cell fibroblasts (radioimmunoassay); assay type: cell-based, human; conditions: concentration not given; for % effect on PGE2 production (positive control): 1080 min
Experimental: as §2, §3
A radioinmunoassay (New England Nuclear) was used to quantitate PGE2 levels in BUD-8 skin cell culture supernatants. Briefly, into each polypropylene tube were mixed 0.1 ml anti-PGE2, 0.1 ml ^125 1-PGE2 and 0.1 ml PGE2 standard or PGE2 containing sample. The BUD-8 skin culture supernatants were diluted 1:2 prior to addition to the radioimmunoassay. Tubes were refrigerated overnight. A polyethylene glycol solution (16%, 6,000 m.w.) was then added to precipitate immune complexes and the radioactivity in the precipitate was counted in a gamma counter.

[5] = system: GS-109-V-20 human skin cell fibroblasts; experiment: Fibroblast assay: proliferation of GS-109-V-20 skin cell fibroblasts; assay type: cell-based; conditions: for ^3 H-Thymidine uptake by GS-109-V-20 skin cells (control compound): 2 × 10^-6 M Indomethacin, 2 × 10^-6 N NDGA
Experimental: The effect of methyl 3-O-3'-(N',N'-dimethylamino-n-propyl)-6-deoxy-D-glucopyranoside on the proliferative capacity of human GS-109-V-20 skin fibroblasts was measured with the use of ^3 H-thymidine incorporation assay. Cultured skin cells were detached from the surface of tissue culture flasks mechanically with a Teflon scraper. The cells were washed, resuspended in incubation medium and the viabilities determined. These cells were then plated in triplicate at a density of 1×10^3 cells/0.1 ml/microtiter well. To these cells was added 0.1 ml incubation medium containing the methyl 3-O-3'-(N',N'-dimethylamino-n-propyl)-6-deoxy-D-glucopyranoside compound.
After 3 days of culture, 1#uCi ^3 H-thymidine was added in 50 ul volume to each culture well of the microtiter plates. Eighteen hours later, each of the GS-109-V-20 cultures was examined morphologically for evidence of drug-induced toxicity such as cell rounding or granularity. The ^3 H-thymidine-pulsed cells were then precipitated and the amount of ^3 H-thymidine incorporation was counted on a liquid scintillation counter.
Methyl 3-O-3'-(N',N'-dimethylamino-n-propyl)-6-deoxy-D-glucopyranoside was suspended directly into the medium by extensive sonication, without being filter-sterilized. A range of doses of this compound was used to measure effects of this compound upon GS-109-V-20 cell proliferation. The following doses were used:
The human skin cell fibroblast line, GS-109-V-20, was obtained from the American Type Culture-Collection. […] These cells were selected for use because they are considered to exist in an initiated state, as opposed to being normal or transformed, and have a more extensive population doubling time and survival period in culture than do normal fibroblasts. In this regard, they would more closely reflect the biological characteristics of psoriatic or rheumatoid synovial fibroblasts which also proliferate more extensively than do normal fibroblasts, but not as extensively as immortalized transformed tumor cells.
as §1, with “The number of GS-109-V-20 cells was” for “BUD-8 cell cultures were”, “use in the described assays by culture” for “use”, “4-5” for “4-5 five”, “by trypsinization,” for “with a Teflon scraper,”

SMILES	% effect on ConA blastogenic response (positive control) ([1]; ConA 1 ug/ml)	Blastogenic response of normal spleen cells to Con-A (positive control) ([1]; ConA 1 ug/ml)	% effect on ConA blastogenic response (positive control) ([1]; ConA 4 ug/ml) [%]	Blastogenic response of normal spleen cells to Con-A (positive control) ([1]; ConA 4 ug/ml)	% effect on BUD-8 proliferation (positive control) [2] [%]	^3 H-Thymidine uptake by BUD-8 skin cells (positive control) [2]	LTB4 in supernatant (positive control) [3]	calculated LTB4 production/10^5 BUD-8 cells (positive control) [3]	% effect on LTB4 production (positive control) [3]	PGE2 in supernatant (positive control) [4]	calculated PGE2 production/10^5 BUD-8 cells (positive control) [4] [pg per 10^5 cells]	% effect on PGE2 production (positive control) [4] [%]	^3 H-Thymidine uptake by GS-109-V-20 skin cells (control compound) [5]	inhibition at 2 µM ([5]; Homo sapiens, Fibroblast, read-out: % effect on GS-109-V-20 proliferation (control compound)) [%]
COc1ccc2c(c1)c(CC(=O)O)c(C)n2C(=O)c1ccc(Cl)cc1 [Indo., indomethacin, reference compound]	+4%	57.7 ± 8.7 × 10^-3 cpm	-17	70.0 ± 5.6 × 10^-3 cpm	-17	6,043 ± 184 cpm	39.4 ± 5.3 pg LTB4 100 ul supernatant	1,771 pg per 10^5 cells	+10%	5.3 ± 0.5 pg PGE2 /50 ul supernatant	187	-66	3,317 ± 351 cpm	14
CC(Cc1ccc(O)c(O)c1)C(C)Cc1ccc(O)c(O)c1 (stereo not drawn) [NDGA, nordihydroguaiaretic acid, reference compound]	-14%	47.6 ± 5.0 × 10^-3 cpm	-24	64.1 ± 9.2 × 10^-3 cpm	-5	6,925 ± 313 cpm	19.9 ± 1.5 pg LTB4 100 ul supernatant	794 pg per 10^5 cells	-45%	14.7 ± 0.8 pg PGE2 /50 ul supernatant	933	-8	3,179 ± 489 cpm	
